Measured values from patent US8524699B2, “Substituted dihydropyrazolones and use thereof as HIF-prolyl-4-hydroxylase inhibitors” (Bayer Intellectual Property GmbH, priority 2006, dated 2013).
Counter-ions that a name gives are not always drawn.

Each molecule was assayed against HIF prolyl hydroxylase (assay: Inhibition of the activity of HIF prolyl hydroxylase (VBC complex binding to hydroxylated peptide substrate)). Details: cell lysate containing prolyl hydroxylase.
Format: biochemical
Experimental: Hydroxylated HIF bonds specifically to the von Hippel-Lindau protein-elongin B-elongin C complex (VBC complex). This interaction occurs only if HIF is hydroxylated on a conserved prolyl radical. It is the basis for the biochemical determination of HIF prolyl hydroxylase activity. The test is carried out as described [Oehme F., Jonghaus W., Narouz-Ott L., Huetter J., Flamme I., Anal. Biochem. 330 (1), 74-80 (2004)]:
A clear 96-well microtiter plate coated with NeutrAvidin HBC (Pierce) is incubated with blocker casein for 30 minutes. The plate is then washed three times with 200 μl each time of wash buffer (50 mM Tris, pH 7.5, 100 mM NaCl, 10% (v/v) blocker casein, 0.05% (v/v) Tween 20) per well. The peptide biotin-DLDLEMLAPYIPMDDDFQL (Eurogentec, 4102 Seraing, Belgium) is added in a concentration of 400 nM in 100 μl wash buffer. This peptide serves as a substrate for the prolyl hydroxylation and is bonded to the microtiter plate. After incubation for 60 minutes, the plate is washed three times with wash buffer, incubated with 1 mM biotin in blocker casein for 30 minutes and then washed again three times with wash buffer.
To carry out the prolyl hydroxylase reaction, the peptide substrate bonded to the plate is incubated with a cell lysate containing prolyl hydroxylase for 1 to 60 minutes. The reaction takes place in 100 μl reaction buffer (20 mM Tris, pH 7.5, 5 mM KCl, 1.5 mM MgCl2, 1 μM-1 mM 2-oxoglutarate, 10 μM FeSO4, 2 mM ascorbate) at room temperature. The reaction mixture moreover contains various concentrations of the prolyl hydroxylase inhibitor to be tested. The test substance is preferably, but not exclusively, employed at concentrations of between 1 nM and 100 μM. The reaction is stopped by washing the plate three times with wash buffer.
For quantitative determination of the prolyl hydroxylation, a fusion protein which contains both thioredoxin from E. coli and the VBC complex in 80 μl bonding buffer (50 mM Tris, pH 7.5, 120 mM NaCl) is added. After 15 minutes, 10 μl of a solution of polyclonal anti-thioredoxin antibodies from rabbit in bonding buffer are added. After a further 30 minutes, 10 μl of a solution of anti-rabbit immunoglobulin coupled to horseradish peroxidase in bonding buffer are added. After incubation at room temperature for 30 minutes, the plate is washed three times with wash buffer in order to remove non-bonded VBC complex and antibodies. To determine the amount of bonded VBC complex, the plate is incubated with TMB for 15 minutes. The color reaction is ended by addition of 100 μl 1 M sulfuric acid. The amount of bonded VBC complex is determined by measurement of the optical density at 450 nm. It is proportional to the amount of hydroxylated proline in the peptide substrate.
Alternatively, a VBC complex coupled to europium (Perkin Elmer) can be used for detection of the prolyl hydroxylation. In this case, the amount of bonded VBC complex is determined by the fluorescence with respect to time. The use of VBC complex labeled with [^35S]-methionine is moreover possible. For this, the radioactively labeled VBC complex can be prepared by in vitro transcription-translation in reticulocyte lysate.
Representative IC50 values for the embodiment examples are reproduced in the following Table 1: […]

Row | Structure (SMILES) | IC50 [nM]
1 | Cc1cc(C)n(-c2cc(-n3[nH]cc(-c4cccnc4)c3=O)ncn2)n1 [Example 3] | 700
2 | O=c1c(-c2cccnc2)c[nH]n1-c1nc2ccccc2s1 [Example 6] | 2800
3 | O=c1c(-c2cccnc2)c[nH]n1-c1nnc(-c2ccc(Cl)cc2)s1 [Example 7] | 880
4 | O=c1c(-c2ccc(Cl)nc2)c[nH]n1-c1cc(N2CCOCC2)ncn1 [Example 16] | 480
5 | O=c1c(-c2cccnc2)c[nH]n1-c1cc(N2CCOCC2)ncn1 [Example 18, 2-(6-Morpholin-4-yl-pyrimidin-4-yl)-4-pyridin-3-yl-1,2-dihydro-3H-pyrazol-3-one hydrochloride] | 180
6 | O=c1c(-c2cccnc2)c[nH]n1-c1ccc(-c2ccccc2)nn1 [Example 22, 2-(6-Phenylpyridazin-3-yl)-4-pyridin-3-yl-1,2-dihydro-3H-pyrazol-3-one hydrochloride] | 2700
7 | CN(C)CCOc1cc(-n2[nH]cc(-c3cccnc3)c2=O)ncn1 [Example 26, 2-{6-[2-(Dimethylamino)ethoxy]pyrimidin-4-yl}-4-pyridin-3-yl-1,2-dihydro-3H-pyrazol-3-one hydrochloride] | 4000
8 | COCCN1CCN(c2cc(-n3[nH]cc(-c4cccnc4)c3=O)ncn2)CC1 [Example 28, 2-{6-[4-(2-Methoxyethyl)piperazin-1-yl]pyrimidin-4-yl}-4-pyridin-3-yl-1,2-dihydro-3H-pyrazol-3-one dihydrochloride] | 890
9 | N#Cc1cncc(-c2c[nH]n(-c3cc(N4CCCCC4)ncn3)c2=O)c1 [Example 44, 5-[3-oxo-2-(6-piperidin-1-ylpyrimidin-4-yl)-2,3-dihydro-1H-pyrazol-4-yl]pyridine-3-carbonitrile hydrochloride] | 1120
10 | O=c1c(-c2cccnc2)c[nH]n1-c1cnccn1 [Example 46, 2-Pyrazin-2-yl-4-pyridin-3-yl-1,2-dihydro-3H-pyrazol-3-one hydrochloride] | 930
11 | CCN(CC)CCCCCCNc1cc(-n2[nH]cc(-c3cccnc3)c2=O)ncn1 [Example 55, 2-(6-{[6-(Diethylamino)hexyl]amino}pyrimidin-4-yl)-4-pyridin-3-yl-1,2-dihydro-3H-pyrazol-3-one] | 1700
